# US5177075A, “Substituted dihydroisoquinolinones and related compounds as potentiators of the lethal effects of radiation and certain chemotherapeutic agents; selected compounds, analogs and process” (priority 1991, dated 1993)
# pIC50: −log10 of the molar value. Entries after “also recorded” stand apart in the source; their conditions may differ. Read-outs that look alike come from different tables or passages of the source.
# What was measured:
# V79 cells = experiment: In vitro radiosensitizing activity at 37°: shoulder modifying effects (reduction in Dq); assay type: cell-based
# Method: The shoulder region represents the inherent repair capabilities of a given cell line. […] To determine the hypoxic x-ray dose response, cells are rendered hypoxic four hours prior to the addition of the test compound by placing them in a 37° C. incubator within an anaerobic glove chamber (Forma). […] Drug is added (0.1 ml into 2 ml media in petri dish) within the anaerobic chamber and drug treatment is at the highest nontoxic dose for one hour at 37°. The oxic x-ray dose response is determined in a similar manner except that all manipulations are carried out in air. […] Cytotoxicity controls (drug only, no irradiation) are included as well as oxic and hypoxic untreated controls (irradiation only, no drug). Immediately following irradiation, cells are rinsed twice with 2 ml fresh media prior to the addition of 5 ml of fresh media. The cells are then incubated at 37° C. After six days, dishes are stained with crystal violet and colonies of 50 or more cells are counted to determine percent surviving cells versus x-ray dose. […] This is expressed by percent reduction in Dq where Dq is defined as the dose at the intersection of the regression line for the logarithmic portion of the survival curve with the 100% survival level. This is taken to represent the width of the shoulder region of the survival curve.
# [1] = system: cells exposed to radiation; conditions: cited from earlier work
# [2] = biological target: T1, Poly(ADP-ribose) synthetase (Bos taurus, UniProt P18493); conditions: cited from earlier work
# T1 construct: Poly (ADP-ribose) synthetase from calf thymus; from tissue; host or cells: calf thymus
# T1 sequence (P18493 whole entry): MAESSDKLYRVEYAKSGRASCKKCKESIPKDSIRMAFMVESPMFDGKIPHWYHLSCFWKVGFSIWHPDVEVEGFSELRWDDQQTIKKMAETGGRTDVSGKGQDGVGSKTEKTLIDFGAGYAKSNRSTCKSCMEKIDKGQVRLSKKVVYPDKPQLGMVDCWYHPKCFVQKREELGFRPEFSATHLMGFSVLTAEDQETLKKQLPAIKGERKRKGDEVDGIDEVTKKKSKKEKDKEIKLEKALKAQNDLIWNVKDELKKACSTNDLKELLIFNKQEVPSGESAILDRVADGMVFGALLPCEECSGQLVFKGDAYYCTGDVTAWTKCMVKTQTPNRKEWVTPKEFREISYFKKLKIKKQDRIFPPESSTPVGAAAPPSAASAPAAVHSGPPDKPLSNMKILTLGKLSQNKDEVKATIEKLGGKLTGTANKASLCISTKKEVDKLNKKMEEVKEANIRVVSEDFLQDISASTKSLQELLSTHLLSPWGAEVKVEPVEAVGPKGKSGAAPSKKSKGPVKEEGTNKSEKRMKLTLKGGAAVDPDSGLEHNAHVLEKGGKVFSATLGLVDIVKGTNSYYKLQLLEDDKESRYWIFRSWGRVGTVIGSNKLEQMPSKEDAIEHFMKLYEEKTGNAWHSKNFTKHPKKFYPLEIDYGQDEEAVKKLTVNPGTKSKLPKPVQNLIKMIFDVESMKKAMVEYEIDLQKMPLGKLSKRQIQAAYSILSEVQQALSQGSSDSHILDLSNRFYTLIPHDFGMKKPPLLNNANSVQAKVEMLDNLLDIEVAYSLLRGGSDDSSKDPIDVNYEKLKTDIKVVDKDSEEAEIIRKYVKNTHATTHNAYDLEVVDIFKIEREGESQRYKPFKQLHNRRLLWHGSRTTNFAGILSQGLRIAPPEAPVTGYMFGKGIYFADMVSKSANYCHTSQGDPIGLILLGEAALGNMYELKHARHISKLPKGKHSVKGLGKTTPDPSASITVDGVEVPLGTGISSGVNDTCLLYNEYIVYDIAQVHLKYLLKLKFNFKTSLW
# KHT fibrosarcoma tumors = experiment: In vivo assay for radiosensitization activity; parameters: species or system hybrid mice (B6C3F1)
# Method: In Vivo Assay for Radiosensitization Activity
# For this assay KHT fibrosarcoma tumors in hybrid mice (B6C3F1) weighing 20-25 g are used. The mice are randomized and implanted SC with the appropriate tumor brei on Day 0 (one implant/mouse). Samples from each donor tumor and/or from the final brei are incubated in thioglycolate media as a check for gross bacterial contamination. On Day 8 tumors are measured in two dimensions with calipers and animals with tumor masses in the range of 500 to 700 mg are selected for the assay. At this point the tumors contain approximately 20% hypoxic cells.
# The test agents are dissolved in any of several vehicles at a fixed injection dose equal to 90-100% of the maximum tolerated dose. Additional suitable controls of test compound (no irradiation) and vehicle-injected and irradiated mice are also included. Mice are irradiated at a dose of 1700 RADs at various intervals both prior to and after intraperitoneal administration of the test agents.
# By using these intervals, an indication of both the optimum time to irradiate and the degree of sensitization are obtained. Irradiation of the KHT tumors is by whole body irradiation of animals in movement restricting jigs at different total exposures as indicated. The x-ray source is a Phillips 320 KV instrument with a half-value thickness of 2.0 mm copper and a target to source distance of 17 inches, with a delivery rate of 2.0 Gy/minute. Animals are monitored for signs of acute toxicity after treatment.
# After incubation for 12-16 days at 37° and staining, the colonies are counted. The data are expressed as % control versus time.
# [3] = biological target: T1, Poly(ADP-ribose) synthetase; experiment: Inhibition of Poly(ADP-ribose) synthetase; assay type: biochemical, calf
# Method: The enzyme assay is performed by placing the following in small glass tubes kept at 4°: 100 μl of buffer consisting of 0.5M Tris-HCl pH 8.0, 50 mM MgCl2, and 5 mM dithiothreitol; 50 μl of 1 mM [^3 H]nicotinamide adenine dinucleotide having a specific activity of 15 μCi/μmol; 100 μl of calf thymus DNA (0.3 mg/ml in water); 50 μl of calf thymus histone (Sigma, Type IIA, 0.5 mg/ml); 50 μl of inhibitor or inhibitor solvent; 150 μl of enzyme. The components are thoroughly mixed and warmed to 30° C. in a water bath. After 15 minutes the reaction is stopped by adding 2 ml of ice cold 15% trichloroacetic acid and the tubes are placed on ice for 15 minutes. The precipitate is collected on glass fiber filters and washed five times with ice cold 15% trichloroacetic acid. The filters were dried and radioactivity determined in a liquid scintillation counter.
# L1210 cells = experiment: Inhibition of the repair of radiation-induced DNA damage as assessed by alkaline elution; assay type: cell-based
# Method: Inhibition of the Repair of Radiation-Induced DNA Damage as Assessed by Alkaline Elution The basic alkaline elution assay is carried out according to the procedure of K. W. Kohn, […]. Erickson, and L. A. Zwelling in DNA Repair: A Laboratory Manual of Research Procedures (eds. E. C. Freidburg and […]) with slight modifications. Briefly, suspension cultures of exponentially growing L1210 cells (total of 4×10^6 cells) are labeled with 0.02 μCi/ml of [^14 C] thymidine plus 1 nmol/ml of unlabeled thymidine for 24 hours prior to use. L1210 cells used as an internal standard are grown in media supplemented with 0.1 μCi/ml of [^3 H]thymidine and 1 nmol/ml unlabeled thymidine. For the elution protocol cells are removed from the culture flasks, centrifuged, and resuspended in fresh media. Drug treatment for experimental cells is for one hour at 37°. After the treatment period control and drug-treated cells are given a dose of 10 Gy of x-rays and incubated at 37° C. for 10 minutes to allow for repair. Samples consisting of 5×10^5 cells contained in 5 ml of ice cold PBS are deposited directly on 25 mm polycarbonate filters (2 micron pore size). The cells are washed with 5 ml of cold PBS, then lysed by the addition of 5 ml of lysis solution (0.2% SDS, 0.25M tetrasodium EDTA pH 9.7). All procedures commencing at the time of lysis are carried out in the dark. Subsequent to lysis samples are treated with 2 ml of lysis solution containing proteinase-K (0.5 mg/ml) for one hour. The filters are then eluted with tetrapropyl ammonium hydroxide/0.025M EDTA (free acid form)/0.1% SDS, pH 12.1, at a constant flow rate of 0.037 ml/min. Fractions of 2 ml are collected in scintillation vials. […] To each fraction collected and the filter solution 15 ml of modified Ready-Gel scintillation fluid containing 0.7% acetic acid is added. The frequency of single-stranded DNA breakage was calculated as described by Kohn, et al. The data is corrected for the number of single-strand breaks in the […] samples (~20%).
# tumors = conditions: cited from earlier work
# [4] = cited from earlier work; for peripheral neuropathy and convulsions: mice
# hypoxic tumor cells = conditions: cited from earlier work
smiles,measurement,setting,value
NC(=O)c1cccc(N)c1 [3-aminobenzamide],reduction of Dq,V79 cells,does not reduce Dq
same,killing of cells by DNA-damaging agents,[1]; certain cell lines,enhanced killing of these cells by the damaging agents
same,inhibition of postirradiation repair,[1],"inhibit this postirradiation repair process, thereby sensitizing cells to the lethal effects of radiation; also recorded: inhibited"
same,inhibition of poly(ADP-ribose)synthetase,[2],previously known best inhibitor of poly(ADP-ribose)synthetase
"Cc1cccc2c1CCNC2=O [Example XII, 3,4-Dihydro-5-methyl-1(2H)-isoquinolinone]",In Vivo Radiosensitizing Activity,"KHT fibrosarcoma tumors; KHT tumors in mice, relative to misonidazole",+
same,Enhancement Ratio (in vivo),KHT fibrosarcoma tumors; in vivo,1.4-1.5
same,Optimum time preirradiation,KHT fibrosarcoma tumors; time of administration before irradiation,2 to 3 h
same,Shoulder Modification (% Reduction in DQ),"V79 cells; hypoxic V79 cells, class symbols",++ (30-44%)
same,% Reduction in Dq (37°),V79 cells; numeric,30%
same,pIC50,[3],6.80
same,Frequency of Unrepaired Strand Breaks,"L1210 cells; L1210 cells, 10 Gy x-rays, class symbols",++++ (401-500)
same,Frequency of Unrepaired Strand Breaks,L1210 cells; numeric,470 Rad. Eq.
CNC=O [N-methylformamide],sensitization of tumors to radiation,tumors,sensitize tumors to the lethal effects of radiation
"Cc1ncc([N+](=O)[O-])n1CCO [metronidazole, 2-methyl-5-nitro-1H-imidazole-1-ethanol]",peripheral neuropathy and convulsions,[4],peripheral neuropathy effects and convolusions in mice
same,CNS side effects,"[4]; mouse, in vivo",serious adverse CNS side effects
same,"CNS toxicity, use in humans","[4]; mouse, in vivo",limiting factor for their use in humans
same,radiosensitizing activity,hypoxic tumor cells,effective as radiosensitizers for hypoxic cells in vivo; also recorded: active both in vitro and in vivo as a radiosensitizer
"COCC(O)Cn1ccnc1[N+](=O)[O-] (stereo not drawn) [misonidazole, α-(methoxymethyl)-2-nitro-1H-imidazole-1-ethanol]",CNS side effects,[4]; administered to mice,serious adverse CNS side effects
same,peripheral neuropathy and convulsions,[4],peripheral neuropathy effects and convolusions in mice
same,"CNS toxicity, use in humans",[4]; use in humans,limiting factor for their use in humans
same,radiosensitizing activity,hypoxic tumor cells,of value as a radio-sensitizer for hypoxic tumor cells; also recorded: effective as radiosensitizers for hypoxic cells in vivo
